As a reminder, the IC50 is the concentration needed to halve the response being measured.

The structures appear in SMILES notation.

The target of this assay is T1, human GPR17 receptor (Homo sapiens, UniProt Q13304).
T1 construct: host or cells: HEK-293
The assay is described as follows: Calcium mobilization functional assay (Fluo-8, FLIPR TETRA) in HEK-293 hGPR17 (Gα-q assay). Type of assay: cell-based. The settings on record: antagonism of MDL29,951 (~EC80) induced Ca2+ signal; cell line (HEK-293 hGPR17 or HEK-293 Suchi5 hGPR17) not given. The method, boiled down:
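Fluo-8-loaded HEK-293 hGPR17 cells (60 min dye loading, room temperature) were preincubated with compound for twenty minutes, then challenged with agonist MDL29,951 at ~EC80, 500 nM. Intracellular calcium release via Gα-q was recorded as FLIPR fluorescence for a further 2 minutes; compounds tested in duplicate.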
(A change in cytosolic calcium serves as a functional read-out for many receptors and channels.)

T1 sequence (Q13304 whole entry): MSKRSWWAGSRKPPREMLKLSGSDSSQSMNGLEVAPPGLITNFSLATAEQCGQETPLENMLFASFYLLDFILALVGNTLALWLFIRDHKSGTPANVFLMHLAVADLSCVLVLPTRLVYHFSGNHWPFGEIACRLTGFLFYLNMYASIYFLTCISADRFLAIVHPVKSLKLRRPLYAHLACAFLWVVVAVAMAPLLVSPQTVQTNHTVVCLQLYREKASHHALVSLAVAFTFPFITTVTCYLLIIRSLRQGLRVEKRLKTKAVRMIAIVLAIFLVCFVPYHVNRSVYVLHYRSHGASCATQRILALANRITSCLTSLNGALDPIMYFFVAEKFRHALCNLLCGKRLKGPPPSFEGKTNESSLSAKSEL

In the case of `N#CCOc1cc(F)c(NS(=O)(=O)c2c[nH]c(-c3ccccc3)c2F)cc1F` [Cpd 632, N-[4-(cyanomethoxy)-2,5-difluorophenyl]-4-fluoro-5-phenyl-1H-pyrrole-3-sulfonamide], the IC50 is below 500 nM.

On to `COc1csc(-c2cc(S(=O)(=O)Nc3cc(F)c(OC(F)F)cc3F)c[nH]2)n1` [Cpd 633, N-[4-(difluoromethoxy)-2,5-difluorophenyl]-5-(4-methoxy-1,3-thiazol-2-yl)-1H-pyrrole-3-sulfonamide], for which the IC50 was below 500 nM.

In the case of `Cc1csc(-c2cc(S(=O)(=O)Nc3cc(F)c(OC(F)F)cc3F)c[nH]2)n1` [Cpd 634, N-[4-(difluoromethoxy)-2,5-difluorophenyl]-5-(4-methyl-1,3-thiazol-2-yl)-1H-pyrrole-3-sulfonamide], the IC50 is below 500 nM.

`O=S(=O)(Nc1cc(F)c(OC(F)F)cc1F)c1c[nH]c(-c2ccsn2)c1` [Cpd 635, N-[4-(difluoromethoxy)-2,5-difluorophenyl]-5-(1,2-thiazol-3-yl)-1H-pyrrole-3-sulfonamide]: the IC50 is below 500 nM.

In the case of `O=S(=O)(Nc1cc(F)c(OC(F)F)cc1F)c1c[nH]c(-c2ncco2)c1` [Cpd 636, N-[4-(difluoromethoxy)-2,5-difluorophenyl]-5-(1,3-oxazol-2-yl)-1H-pyrrole-3-sulfonamide], the IC50 is below 500 nM.

For `O=S(=O)(Nc1cc(F)c(OC(F)F)cc1F)c1c[nH]c(-c2ncc(C(F)(F)F)s2)c1` [Cpd 637, N-[4-(difluoromethoxy)-2,5-difluorophenyl]-5-[5-(trifluoromethyl)-1,3-thiazol-2-yl]-1H-pyrrole-3-sulfonamide], the IC50 was 500 to 5000 nM.

As to `O=S(=O)(Nc1cc(F)c(OC(F)F)cc1F)c1c[nH]c(-c2ccns2)c1` [Cpd 638, N-[4-(difluoromethoxy)-2,5-difluorophenyl]-5-(1,2-thiazol-5-yl)-1H-pyrrole-3-sulfonamide], the IC50 was below 500 nM.

`O=S(=O)(Nc1cc(F)c(OC(F)F)cc1F)c1c[nH]c(-c2cnsc2)c1` [Cpd 639, N-[4-(difluoromethoxy)-2,5-difluorophenyl]-5-(1,2-thiazol-4-yl)-1H-pyrrole-3-sulfonamide]: the IC50 was below 500 nM.

On to `N#Cc1cc(F)c(NS(=O)(=O)c2c[nH]c(-c3ccoc3)c2)cc1F` [Cpd 640, N-(4-cyano-2,5-difluorophenyl)-5-(furan-3-yl)-1H-pyrrole-3-sulfonamide], for which the IC50 is below 500 nM.

Take `N#Cc1ccc(NS(=O)(=O)c2c[nH]c(-c3cncs3)c2)c(F)c1` [Cpd 641, N-(4-cyano-2-fluorophenyl)-5-(1,3-thiazol-5-yl)-1H-pyrrole-3-sulfonamide]: the IC50 was below 500 nM.

With `N#Cc1cc(F)c(NS(=O)(=O)c2c[nH]c(-c3cscn3)c2)cc1F` [Cpd 642, N-(4-cyano-2,5-difluorophenyl)-5-(1,3-thiazol-4-yl)-1H-pyrrole-3-sulfonamide], the IC50 was below 500 nM.

Take `[2H]C([2H])(c1cccc(F)c1)c1c[nH]cc1S(=O)(=O)Nc1cc(F)c(C#N)cc1F` [Cpd 643, N-(4-cyano-2,5-difluorophenyl)-4-((3-fluorophenyl)methyl-d2)-1H-pyrrole-3-sulfonamide]: the IC50 was below 500 nM.

Turning to `N#Cc1sc(NS(=O)(=O)c2c[nH]c(-c3ccccc3)c2)cc1F` [Cpd 644, N-(5-cyano-4-fluorothiophen-2-yl)-5-phenyl-1H-pyrrole-3-sulfonamide], the half-maximal inhibitory concentration (IC50) lay in the range of 5000 to 50000 nM.

In the case of `N#Cc1ccc(F)c(-c2cc(S(=O)(=O)Nc3cc(F)c(C#N)cc3F)c[nH]2)c1` [Cpd 645, N-(4-cyano-2,5-difluorophenyl)-5-(5-cyano-2-fluorophenyl)-1H-pyrrole-3-sulfonamide], the IC50 was below 500 nM.

Take `N#Cc1cc(F)c(NS(=O)(=O)c2c[nH]c(-c3ccsn3)c2)cc1F` [Cpd 646, N-(4-cyano-2,5-difluorophenyl)-5-(1,2-thiazol-3-yl)-1H-pyrrole-3-sulfonamide]: the IC50 is below 500 nM.

Take `N#Cc1cc(F)c(NS(=O)(=O)c2c[nH]c(-c3cncs3)c2)cc1F` [Cpd 647, N-(4-cyano-2,5-difluorophenyl)-5-(1,3-thiazol-5-yl)-1H-pyrrole-3-sulfonamide]: the IC50 is below 500 nM.

As for `N#Cc1cc(F)c(NS(=O)(=O)c2c[nH]c(-c3ncc(Cl)s3)c2)cc1F` [Cpd 648, 5-(5-chloro-1,3-thiazol-2-yl)-N-(4-cyano-2,5-difluorophenyl)-1H-pyrrole-3-sulfonamide], the IC50 was below 500 nM.

In the case of `Cc1csc(-c2cc(S(=O)(=O)Nc3cc(F)c(C#N)cc3F)c[nH]2)n1` [Cpd 649, N-(4-cyano-2,5-difluorophenyl)-5-(4-methyl-1,3-thiazol-2-yl)-1H-pyrrole-3-sulfonamide], the IC50 was below 500 nM.

`N#Cc1ccc(F)c(-c2cc(S(=O)(=O)Nc3cc(F)c(OC(F)F)cc3F)c[nH]2)c1` [Cpd 650, 5-(5-cyano-2-fluorophenyl)-N-[4-(difluoromethoxy)-2,5-difluorophenyl]-1H-pyrrole-3-sulfonamide]: the IC50 was below 500 nM.

`N#Cc1cc(F)c(NS(=O)(=O)c2c[nH]c(-c3coc4ccccc34)c2)cc1F` [Cpd 651, 5-(1-benzofuran-3-yl)-N-(4-cyano-2,5-difluorophenyl)-1H-pyrrole-3-sulfonamide]: the IC50 is below 500 nM.

`COc1c(F)cccc1-c1cc(S(=O)(=O)Nc2cc(F)c(C#N)cc2F)c[nH]1` [Cpd 652, N-(4-cyano-2,5-difluorophenyl)-5-(3-fluoro-2-methoxyphenyl)-1H-pyrrole-3-sulfonamide]: the IC50 is below 500 nM.

In the case of `Cc1occc1-c1cc(S(=O)(=O)Nc2cc(F)c(C(F)(F)F)cc2F)c[nH]1` [Cpd 653, N-[2,5-difluoro-4-(trifluoromethyl)phenyl]-5-(2-methylfuran-3-yl)-1H-pyrrole-3-sulfonamide], the half-inhibitory concentration (IC50) is below 500 nM.

With `N#Cc1cc(F)c(NS(=O)(=O)c2c[nH]c(-c3cccc(F)c3)c2)cc1F` [Cpd 654, N-(4-cyano-2,5-difluorophenyl)-5-(3-fluorophenyl)-1H-pyrrole-3-sulfonamide], the 50% inhibitory concentration (IC50) is below 500 nM.

Consider `O=S(=O)(Nc1nc(F)c(OCCF)cc1F)c1c[nH]c(-c2cc(Cl)ccc2F)c1` [Cpd 655, 5-(5-chloro-2-fluorophenyl)-N-[3,6-difluoro-5-(2-fluoroethoxy)pyridin-2-yl]-1H-pyrrole-3-sulfonamide], for which the IC50 is below 500 nM.

`N#Cc1cc(F)c(NS(=O)(=O)c2c[nH]c(-c3ccns3)c2)cc1F` [Cpd 656, N-(4-cyano-2,5-difluorophenyl)-5-(1,2-thiazol-5-yl)-1H-pyrrole-3-sulfonamide]: the IC50 fell in the range of 500 to 5000 nM.

For the molecule `N#Cc1cc(F)c(NS(=O)(=O)c2c[nH]c(-c3cnsc3)c2)cc1F` [Cpd 657, N-(4-cyano-2,5-difluorophenyl)-5-(1,2-thiazol-4-yl)-1H-pyrrole-3-sulfonamide], the IC50 fell in the range of 500 to 5000 nM.

In the case of `N#Cc1cc(F)c(NS(=O)(=O)c2c[nH]c(-c3ncco3)c2)cc1F` [Cpd 658, N-(4-cyano-2,5-difluorophenyl)-5-(1,3-oxazol-2-yl)-1H-pyrrole-3-sulfonamide], the IC50 fell in the range of 500 to 5000 nM.

Take `Cc1csc(-c2cc(S(=O)(=O)Nc3cc(F)c(OC(F)F)cc3F)c[nH]2)c1` [Cpd 659, N-[4-(difluoromethoxy)-2,5-difluorophenyl]-5-(4-methylthiophen-2-yl)-1H-pyrrole-3-sulfonamide]: the IC50 was below 500 nM.

As to `COc1csc(-c2cc(S(=O)(=O)Nc3cc(F)c(OC(F)F)cc3F)c[nH]2)c1` [Cpd 660, N-[4-(difluoromethoxy)-2,5-difluorophenyl]-5-(4-methoxythiophen-2-yl)-1H-pyrrole-3-sulfonamide], the IC50 is below 500 nM.

With `COc1csc(-c2cc(S(=O)(=O)Nc3cc(F)c(C#N)cc3F)c[nH]2)n1` [Cpd 661, N-(4-cyano-2,5-difluorophenyl)-5-(4-methoxy-1,3-thiazol-2-yl)-1H-pyrrole-3-sulfonamide], the IC50 is below 500 nM.

On to `N#Cc1ccc(F)c(-c2cc(S(=O)(=O)Nc3nc(F)c(OCCF)cc3F)c[nH]2)c1` [Cpd 662, 5-(5-cyano-2-fluorophenyl)-N-[3,6-difluoro-5-(2-fluoroethoxy)pyridin-2-yl]-1H-pyrrole-3-sulfonamide], for which the IC50 is below 500 nM.

As to `N#Cc1cc(F)c(NS(=O)(=O)c2c[nH]c(-c3cccc4c(C(F)(F)F)coc34)c2)cc1F` [Cpd 663, N-(4-cyano-2,5-difluorophenyl)-5-[3-(trifluoromethyl)-1-benzofuran-7-yl]-1H-pyrrole-3-sulfonamide], the IC50 lay within 500 to 5000 nM.

For `O=S(=O)(Nc1cc(F)c(OC(F)F)cc1F)c1c[nH]c(-c2csc(Cl)c2)c1` [Cpd 664, 5-(5-chlorothiophen-3-yl)-N-[4-(difluoromethoxy)-2,5-difluorophenyl]-1H-pyrrole-3-sulfonamide], the IC50 lay in the range of 500 to 5000 nM.

On to `O=S(=O)(Nc1nc(F)c(OCCF)cc1F)c1c[nH]c(-c2nccs2)c1` [Cpd 665, N-[3,6-difluoro-5-(2-fluoroethoxy)pyridin-2-yl]-5-(1,3-thiazol-2-yl)-1H-pyrrole-3-sulfonamide], for which the IC50 was below 500 nM.

Turning to `O=S(=O)(Nc1cc(F)c(OC(F)F)cc1F)c1c[nH]c(-c2cc(Cl)cs2)c1` [Cpd 666, 5-(4-chlorothiophen-2-yl)-N-[4-(difluoromethoxy)-2,5-difluorophenyl]-1H-pyrrole-3-sulfonamide], the IC50 was below 500 nM.

Turning to `N#Cc1cc(F)c(NS(=O)(=O)c2c[nH]c(-c3ncc(C(F)(F)F)s3)c2)cc1F` [Cpd 667, N-(4-cyano-2,5-difluorophenyl)-5-[5-(trifluoromethyl)-1,3-thiazol-2-yl]-1H-pyrrole-3-sulfonamide], the IC50 was in the range of 5000 to 50000 nM.

For the molecule `O=S(=O)(Nc1cc(F)c(OC(F)F)cc1F)c1c[nH]c(-c2nc3ccccc3s2)c1` [Cpd 668, 5-(1,3-benzothiazol-2-yl)-N-[4-(difluoromethoxy)-2,5-difluorophenyl]-1H-pyrrole-3-sulfonamide], the IC50 was 500 to 5000 nM.

The values above are taken from patent US20240299385A1 (ReWind Therapeutics NV, priority 2021, published 2024).
